How the values were obtained:
[1] = test system: FAK and IGF-1R pathway effectors; experiment: Western blot of signaling in melanoma cell lines; assay type: cell-based, human
Excerpt: Computational Docking The crystal structures of the N-terminal domain of FAK (PDB code 2AL6) (22) and the kinase domain of IGF-1R(PDB 1P40A) (23) were utilized for in silico molecular modeling of their interaction as previously described. The three-dimensional coordinates of compound NSC344553 (INT2-31), obtained from the database of the National Cancer Institute, Developmental Therapeutics Program (NCI/DTP), were docked onto the predicted interface of the amino-terminus of FAK (amino acids 127-243) with the intracytoplasmic portion of IGF-1R (21). All docking calculations were performed with the University of California-San Francisco DOCK 5.1 program, using a clique-matching algorithm to orient small molecule structures with sets of spheres that describe the target sites on FAK (37). 100 orientations were created for NSC344553 in the target site and were scored using the computer program grid-based scoring function. Docking calculations were performed on the University of Florida High Performance Computing supercomputing cluster (http:hpc.ufl.edu). The intermolecular energies for all configurations of NSC 344553 in binding to FAK-NT2 were calculated as the sum of electrostatic and van der Waals energies. These energy terms were evaluated as correlation functions, which were computed efficiently with Fast Fourier Transforms. Production of GST-fusion proteins: The FAK-GST plasmid constructs (pGEX vector) were kindly provided by Dr. Elena Kurenova (Roswell Park Cancer Institute, Buffalo, N.Y.). His-tagged IGF-1R protein was purchased from Blue Sky Biotechnology (Worchester, Mass.). The GST-fusion proteins (FAK fragments) were expressed in BL21 (DE3) Escherichia coli bacteria by incubation with 0.2 mM isopropyl b-D-galactopyranoside (IPTG) for 6 h at 37° C. The bacteria were lysed by sonication, and the fusion proteins were purified with glutathione-Sepharose 4B beads (GE Healthcare, NJ). Pull-down assay: For the pull-down binding assay, His-tagged IGF-1R fragment protein (200 ng) were precleared with GST immobilized on glutathione-Sepharose 4B beads. The precleared His-tagged protein was incubated with 0.2 μg of GST-FAK fusion protein immobilized on the glutathione-Sepharose 4B beads for 1 h at 4° C. and then washed 3× with PBS. Equal amounts of GST-fusion proteins were used for each binding assay. Bound proteins were boiled in 6× Laemmli buffer and analyzed by SDS-PAGE and Western blotting. Immunoprecipitation and western blotting: Cells were washed twice with ice cold 1×PBS and lysed in buffer containing 20 mM Tris, pH 7.4, 150 mM NaCl, 1% NP-40, 5 mM EDTA acid, protease inhibitors (Complete™ Protease Inhibitor, Roche, N.J.) and phosphatase inhibitors (Calbiochem, Calif.). For immunoprecipitation, 100-200 μg of total cell extract was used for each sample. The extracts were incubated with 1 μg of antibody overnight at 4° C. Next, 25 μl of protein A/G-agarose beads were added and the samples were incubated for 2 h at 4° C. The precipitates were washed 4× with lysis buffer and samples containing 30 μg of protein were resolved by SDS-PAGE. The intensity of the bands in the western blots was measured with scion image analysis software program. Short hairpin RNA Transfection of cells: Control shRNA (mock) and FAK shRNAs was obtained from Open Biosystems. The sequences of short hairpin RNAs against human FAK were: (5′-[…] TCCAATCGTTTTG-3′; 5′-[…]-3′) and control shRNA (mock) (5′-[…]-3′). For the transfection of cells (2×10^5 cells/well) were seeded into 6-well plates in 2 ml medium one day prior to transfection. According to the protocols of the manufacturer, cells were transfected using Lipofectamine 2000 reagent (Invitrogen, CA).
Western blotting: boiled samples containing 30 μg of protein were resolved by sodium dodecyl sulfate-polyacrylamide gel electrophoresis followed by transferring to polyvinylidene difluoride membrane (Bio-Rad, Hercules, Calif.). […]

[2] = test system: KYSE140 esophageal cancer cells; experiment: Cell viability (MTT), KYSE140; assay type: cell-based
Procedure: (§1) Cell viability (MTT) and CFSE Proliferation assay: Cells were plated in 96-well plates and let adhere overnight. After cell treatment, cell viability was measured by 3-(4,5-dimethylthiazol-2-yl)-2,5-diphenyl tetrazolium bromide (MTT) assay (CellTiter 96® Aqueous, Promega, Madison, Wis.).
(§2) Cell viability and detachment assays: After cells were treated with siRNA transfection, cell viability was measured by 3-(4,5-dimethylthiazol2-yl)-2,5-diphenyl tetrazolium bromide (MTT) assay (CellTiter 96® AQueous, Promega, Madison, Wis.). Briefly, 20 μl of the tetrazolium compound was added to each well. The cells were then incubated at 37° C. for 1 h. The plate was read at 490 nm with a plate reader to determine the viability. In detachment assays, detached and attached cells were harvested separately and counted in a hemocytometer. The percentage of detachment was calculated by dividing the number of detached cells by the total number of cells. Apoptosis assays: After treatment, attached and detached cells were collected, counted and prepared for terminal uridine deoxynucleotidyl transferase (TUNEL) assay by utilizing an APO-BRDU kit (BD Pharmingen, San Diego, Calif.) according to the manufacturer's instructions. Stained cells were analyzed with a fluorescence-activated cell sorting-Calibur flow cytometer (BD Biosciences). Calculation of the percentage of apoptotic cells in the sample was completed with CellQuest software (BD Biosciences). Apoptotic cells were also analyzed by Hoechst staining. Hoechst 33342 (1 µg/rill) was added to the fixed cells and the specimens were mounted on glass coverslips. The slides were viewed under the Zeiss microscope for apoptotic nuclei. The percent of apoptotic cells was calculated as the ratio of apoptotic cells to total number of cells.
In addition, the effect of INT2-31 on cell viability of esophageal, pancreatic and breast cancer cell lines was analyzed and the IC50 value for each cell line was determined, as shown in Table 1. […] Similar to melanoma results, INT2-31 inhibits viability more in cancer cells compared to normal cells. Sensitivity of the cells to INT2-31 varied and directly correlated to the FAK and IGF-1R expression level of the cells.

GST-FAK-NT2 and IGF-1Rβ = target: T1, GST-FAK-NT2 and IGF-1Rβ (Homo sapiens, UniProt Q05397); experiment: Pull-down assay with purified GST-FAK-NT2 and IGF-1Rβ; details: average IC50, pulldown; read-out: IC50, decrease in binding between purified GST-FAK-NT2 and IGF-1Rβ
T1 construct: host or cells: E. coli BL21 (DE3) for GST-FAK-NT2
T1 sequence (Q05397 127-243): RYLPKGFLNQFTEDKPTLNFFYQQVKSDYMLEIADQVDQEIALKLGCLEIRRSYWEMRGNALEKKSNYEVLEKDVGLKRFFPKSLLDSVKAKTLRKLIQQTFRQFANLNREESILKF
Excerpt: Computational Docking The crystal structures of the N-terminal domain of FAK (PDB code 2AL6) (22) and the kinase domain of IGF-1R(PDB 1P40A) (23) were utilized for in silico molecular modeling of their interaction as previously described. The three-dimensional coordinates of compound NSC344553 (INT2-31), obtained from the database of the National Cancer Institute, Developmental Therapeutics Program (NCI/DTP), were docked onto the predicted interface of the amino-terminus of FAK (amino acids 127-243) with the intracytoplasmic portion of IGF-1R (21). […] 100 orientations were created for NSC344553 in the target site and were scored using the computer program grid-based scoring function. […] The intermolecular energies for all configurations of NSC 344553 in binding to FAK-NT2 were calculated as the sum of electrostatic and van der Waals energies. These energy terms were evaluated as correlation functions, which were computed efficiently with Fast Fourier Transforms. […] Bound proteins were boiled in 6× Laemmli buffer and analyzed by SDS-PAGE and Western blotting. […] The intensity of the bands in the western blots was measured with scion image analysis software program. […]

[3] = test system: AsPC1 pancreatic cancer cells; experiment: Cell viability (MTT), AsPC1; assay type: cell-based; details: Homo sapiens; AsPC1, 72 hours; read-out: IC50 of INT2-31, cell viability
Procedure: as §1
as §2, with “Calculation of the percentage of apoptotic cells in the sample was completed with CellQuest software (BD Biosciences).” left out, “Hoechst 33342 (1 µg/rill) was added to the fixed cells and the specimens were mounted on glass coverslips. The slides were viewed under the Zeiss microscope for apoptotic nuclei. The percent of apoptotic cells was calculated as the ratio of apoptotic cells to total number of cells.” left out

[4] = test system: TE9 esophageal cancer cells; experiment: Cell viability (MTT), TE9; assay type: cell-based; details: TE9, 72 hours; read-out: IC50 of INT2-31, cell viability
Procedure: as §1
as §2, with “Calculation of the percentage of apoptotic cells in the sample was completed with CellQuest software (BD Biosciences).” left out, “Hoechst 33342 (1 µg/rill) was added to the fixed cells and the specimens were mounted on glass coverslips. The slides were viewed under the Zeiss microscope for apoptotic nuclei. The percent of apoptotic cells was calculated as the ratio of apoptotic cells to total number of cells.” left out

**Q.** How did the “dose necessary to significantly decrease p-Akt” value ([1]; A375 cells) turn out when `CSc1ncnc2c1ccn2C1O[C@H](COP(=O)(O)O)[C@@H](O)[C@H]1O` (stereo partly drawn) [INT2-31, 4-(Methylthio)-7-(5-O-phosphono-D-ribofuranosyl)-{7H-Pyrrolo[2,3-d]pyrimidine}] was run?
**A.** 1 to 5 µM

**Q.** What about the “time course of Akt phosphorylation” value ([1]; C8161, 5 μM, 24, 48 and 72 hours) of the same compound?
**A.** some dephosphorylation after 24 hours of treatment with a sustained effect at 72 hours

**Q.** What about the “dose necessary to significantly decrease p-Akt” value ([1]; SK-MEL-28 cells) of the same compound?
**A.** 5 to 10 µM

**Q.** And the p-ERK ([1]; all cell lines, higher doses)?
**A.** slight decrease

**Q.** And the “constitutive and IGF-1 induced signaling to AKT” value ([1]; three melanoma cell lines)?
**A.** consistent inhibition

**Q.** And the “constitutive or IGF-1 induced phosphorylation of IGF-1R” value ([1]; three melanoma cell lines)?
**A.** no significant effect

**Q.** What about the “constitutive phosphorylation of FAK” value ([1]; three melanoma cell lines) of the same compound?
**A.** no significant effect

**Q.** What about the IC50 ([2]; Homo sapiens, KYSE-140, KYSE140, 72 hours, read-out: IC50 of INT2-31, cell viability) of the same compound?
**A.** 2.5 µM

**Q.** What about the “effect of combination with 5-FU on cell viability” value ([2]; KYSE 140, 0.5 and 1 μM INT2-31) of the same compound?
**A.** synergistic effects

**Q.** What about the “sensitivity of cells to single-agent treatment” value ([2]; KYSE 140, 72 hours) of the same compound?
**A.** sensitive

**Q.** And the IC50 (GST-FAK-NT2 and IGF-1Rβ)?
**A.** 3.96 µM

**Q.** What about the IC50 [3] of the same compound?
**A.** 16.9 µM

**Q.** What about the IC50 [4] of the same compound?
**A.** 3.6 µM

— patent US20120107323A1, “KINASE PROTEIN BINDING INHIBITORS” (University of Florida, priority 2009, published 2012)
